Assay [1] relates to HLA-A*24:02 transgenic mice. Kind of assay: Peptide vaccine CTL induction, IFN-γ ELISpot, HLA-A*24:02 Tgm. In kind it is in vivo. As to conditions: HLA-A*24:02-restricted short peptide vaccine once per week, three times, splenocytes. On the procedure: (§1) The predicted antigen peptides were evaluated on the capability of inducing CTLs by using transgenic mice with an HLA gene introduced therein. Each peptide was dissolved in dimethyl sulfoxide (DMSO, FUJIFILM Wako Pure Chemical Corporation) at 10 mg/ml, and HLA transgenic mice were immunized with the resultant together with an adjuvant every week, three times in total. One week after that, the spleens were extracted, and the productions of IFN-γ were evaluated through IFN-γ ELISpot assay.
(§2) In ELISpot assay, CD8-positive T cells were isolated from splenocytes of immunized mice by means of an MACS, and suspended at 1×10^5 cells/well, and the resultant was used as effector cells. Splenocytes of unimmunized mice were subjected to radiation (100 kV, 10 mA, 100 Gy), and suspended at a concentration of 2×10^6 cells/well in Final medium supplemented with any one of the peptides at a concentration of 20 ug/ml, and the resultant was used as target cells.
(§3) FIG. 14, FIG. 15, and Table 1 show identification of multiple peptides each capable of inducing CD8-positive killer T cells (CTLs) reactive with the peptide in splenocytes of mice systemically expressing human HLA-A*24:02 or HLA-A*02:01 in their cells by screening, wherein a peptide vaccine of peptides predicted to be presented by HLA-A*24:02 or HLA-A*02:01 and synthesized from the amino acid sequences of the ten common cancer antigen full-length proteins was administered once per week, three times in total. The rates of inducing CTLs reactive with those peptides were 30 peptides in the 72 HLA-A*24:02-restricted common cancer antigen short peptides, and 38 peptides in the 73 HLA-A*02:01-restricted common cancer antigen short peptides; 68 peptides in the 145 peptides in total.

The subject of a further assay is HLA-A*24:02 Tgm. Kind of assay: Long peptide vaccine, IFN-γ ELISpot, HLA-A*24:02 Tgm. The format is in vivo, mice. Conditions: long peptide (15 to 21 mer) containing the short peptide, CTLs reactive with the short peptide. On the procedure:
as §2

The test system of assay [2] is HLA-A*02:01 transgenic mice. The experiment in a line: Peptide vaccine CTL induction, IFN-γ ELISpot, HLA-A*02:01 Tgm. In kind it is in vivo. As to conditions: HLA-A*02:01-restricted short peptide vaccine once per week, three times, splenocytes. On the procedure: as §1, §2, §3
The next assay relates to HLA-A*02:01 Tgm. The experiment in a line: Long peptide vaccine, IFN-γ ELISpot, HLA-A*02:01 Tgm. The format is in vivo, mice. Conditions: long peptide (15 to 21 mer) containing the short peptide, CTLs reactive with the short peptide. On the procedure: as §2

For HYAKIAADF [CA24 21], the CTL induction entry in assay [1] is recorded as “Yes”. The Long peptide reaction entry with HLA-A*24:02 Tgm is “No”. In the case of YSYAGDNIV [CLDN1-A02-5], in assay [2], the CTL induction entry is recorded as “Yes”. As for ILPYCRPTF [CA24 98], the CTL induction entry in assay [1] is given as “Yes”. Also, the Long peptide reaction entry with HLA-A*24:02 Tgm is given as “Yes”.

On to FLRRGPFEL [CA02 21], for which, in assay [2], the CTL induction result is on record as “Yes”. With WYGNRIVQEF [CLDN1-A24-2], the CTL induction result in assay [1] is “Yes”. Further, the Long peptide reaction result in the assay on HLA-A*24:02 Tgm is recorded as “No”. Consider ILSMIHPQL [LAT1-A02-4], for which the CTL induction result in assay [2] is listed as “Yes”. Further, the Long peptide reaction result in the assay on HLA-A*02:01 Tgm is on record as “No”. Consider DFSGLLEKC [CA02 104], for which the CTL induction entry in assay [2] was “Yes”. For the same sequence, the Long peptide reaction result in the assay with HLA-A*02:01 Tgm is listed as “No”. FTYEDPNEAV [CA02 127]: the CTL induction result in assay [2] is on record as “Yes”. For the sequence KYWREYILSL [A24-GPC3-06], the CTL induction entry in assay [1] is reported as “Yes”. Also, the Long peptide reaction result in the assay with HLA-A*24:02 Tgm is recorded as “No”.

ALFTGWAAA [CLDN1-A02-2]: in assay [2], the CTL induction result was “Yes”. Also, the Long peptide reaction result in the assay with HLA-A*02:01 Tgm was “No”. Turning to YGNRIVQEF [CLDN1-A24-4], the CTL induction entry in assay [1] was “Yes”. The Long peptide reaction result with HLA-A*24:02 Tgm is “No”. In the same order, the values of EFGQALFTGW [CLDN1-A24-5] are “Yes” and “No”. As to RYLTLDQVF [CA24 31], in assay [1], the CTL induction result is listed as “Yes”. Also, in the assay with HLA-A*24:02 Tgm, the Long peptide reaction result was “No”.

In the case of AYYPEDLFI [A24-GPC3-11], the CTL induction result in assay [1] is given as “Yes”. Besides, the Long peptide reaction entry with HLA-A*24:02 Tgm is “No”.

For STIHDSIQYV [A02-GPC3-14], in assay [2], the CTL induction result was “Yes”. For the same sequence, the Long peptide reaction entry with HLA-A*02:01 Tgm is given as “Yes”.

For the sequence FFTDVSLYI [A24-GPC3-10], the CTL induction entry in assay [1] is “Yes”. Consider YIFPVHWQF [CA24 52], for which, in assay [1], the CTL induction result is listed as “Yes”. Further, the Long peptide reaction result in the assay on HLA-A*24:02 Tgm is recorded as “No”. Turning to DFSGLLEKC [CA24 102], the CTL induction result in assay [1] is “Yes”. Besides, in the assay with HLA-A*24:02 Tgm, the Long peptide reaction result is listed as “No”. On to YIIEAFSHA [CA02 91], for which, in assay [2], the CTL induction result is “Yes”. Take KYVCVGTNM [CA24 95]: in assay [1], the CTL induction result is on record as “Yes”. Take RLEAGDHPV [CA02 52]: the CTL induction entry in assay [2] was “Yes”. Moreover, the Long peptide reaction result in the assay on HLA-A*02:01 Tgm is “No”. Consider AYMLEVYGSL [LAT1-A24-5], for which the CTL induction entry in assay [1] is given as “Yes”. In the assay on HLA-A*24:02 Tgm, the Long peptide reaction entry is “No”. FLLCLAGRAL [CA02 56]: the CTL induction result in assay [2] is given as “Yes”. Further, the Long peptide reaction entry with HLA-A*02:01 Tgm is recorded as “No”. Turning to ELFDSLFPV [CA02 12], the CTL induction entry in assay [2] is listed as “Yes”. Take KYFTNCKQW [CA24 85]: in assay [1], the CTL induction entry is “Yes”. As to IYTWIEDHF [CA24 32], the CTL induction entry in assay [1] is “Yes”. Further, the Long peptide reaction entry in the assay with HLA-A*24:02 Tgm is reported as “No”.

Regarding RIYDMENVLL [A02-GPC3-10], the CTL induction result in assay [2] is on record as “Yes”. On the same count and under the same terms, the same measure for FFTDVSLYI [A02-GPC3-18]: “Yes”; for LQLLGFILA [CLDN1-A02-6]: “Yes”. On to VIADRPPPV [CA02 97], for which the CTL induction result in assay [2] is “Yes”. The Long peptide reaction result with HLA-A*02:01 Tgm is given as “Yes”. Turning to TMNDSLSKI [CA0235], the CTL induction result in assay [2] is reported as “Yes”. Moreover, in the assay with HLA-A*02:01 Tgm, the Long peptide reaction entry is reported as “No”. In the case of KMKPLLPRV [CA0233], in assay [2], the CTL induction entry is listed as “Yes”. “KLCGPYEKF [CA24 23, hHSP105α HLA-A*24:02 short peptide]”: in assay [1], the CTL induction result is given as “peptide-specific IFN-γ production had been found”. For GWAAASLCL [CLDN1-A24-7], the CTL induction entry in assay [1] is listed as “Yes”. For the same sequence, in the assay with HLA-A*24:02 Tgm, the Long peptide reaction entry was “No”. For MYIFPVHWQF [CA24 51], in that order: “Yes” and “No”.

For TIHDSIQYV [CA02 13], the CTL induction entry in assay [2] is recorded as “Yes”. Moreover, the Long peptide reaction entry in the assay on HLA-A*02:01 Tgm was “Yes”. For the sequence MLVAAIQSA [CA02 86], the CTL induction entry in assay [2] is reported as “Yes”. For the same sequence, in the assay on HLA-A*02:01 Tgm, the Long peptide reaction entry is “No”. As for AWSYGIVMW [CA24 123], the CTL induction entry in assay [1] was “Yes”.

Consider YMLEVYGSL [LAT1-A02-5], for which the CTL induction entry in assay [2] was “Yes”. In addition, the Long peptide reaction entry with HLA-A*02:01 Tgm is reported as “No”.

Consider HFFATKCTL [CA24 55], for which the CTL induction entry in assay [1] is recorded as “Yes”. Turning to FLAELAYDL [CA02 11], the CTL induction entry in assay [2] is on record as “Yes”. In addition, in the assay with HLA-A*02:01 Tgm, the Long peptide reaction entry is reported as “Yes”. For the sequence VMSWIIPVF [LAT1-A24-6], the CTL induction entry in assay [1] is “Yes”. For SYMAMIQFAI [CA24 34], in assay [1], the CTL induction result is on record as “Yes”. Further, the Long peptide reaction result in the assay on HLA-A*24:02 Tgm is “No”. In the same order, the values of AFEFVGEFF [A24-GPC3-17] are “Yes” and “No”. For the sequence AYLEVTDVI [CA24 91], the CTL induction entry in assay [1] was “Yes”. For VLLGLFSTI [CA02 15], in assay [2], the CTL induction entry is given as “Yes”. The Long peptide reaction result with HLA-A*02:01 Tgm was “Yes”. With GLDEEQHSV [CA02 121], in assay [2], the CTL induction result was “Yes”. For the same sequence, the Long peptide reaction result in the assay with HLA-A*02:01 Tgm is listed as “Yes”.

With TFDSSCHFF [CA24 53], in assay [1], the CTL induction result is “Yes”. In the assay on HLA-A*24:02 Tgm, the Long peptide reaction result was “No”.

As for “PYPEAKIGRF [CA24 24, hHSP105α HLA-A*24:02 short peptide]”, the CTL induction result in assay [1] is recorded as “peptide-specific IFN-γ production had been found”. On to SLVSNVNIEL [CA02 83], for which the CTL induction result in assay [2] is reported as “Yes”. The Long peptide reaction result in the assay with HLA-A*02:01 Tgm is on record as “Yes”. For HLIDKVISTI [CA02 82], in assay [2], the CTL induction entry is on record as “Yes”. Still for that read-out and setting: under VLDSLVSNV [CA02 81] stands “Yes”. Take ADFSGLLEKC [CA24 105]: the CTL induction result in assay [1] is “Yes”. Moreover, the Long peptide reaction result in the assay on HLA-A*24:02 Tgm is given as “No”.

In the case of YYICQTLNV [CA24 97], the CTL induction entry in assay [1] is on record as “Yes”. In addition, the Long peptide reaction result in the assay with HLA-A*24:02 Tgm is recorded as “No”.

For IVMWEVMSF [CA24 127], in assay [1], the CTL induction result is given as “Yes”. QLLTPVPSL [LAT1-A02-1]: the CTL induction result in assay [2] is “Yes”. The Long peptide reaction entry with HLA-A*02:01 Tgm is recorded as “No”. For SYGIVMWEV [CA24 124], in assay [1], the CTL induction result is listed as “Yes”. Moreover, in the assay with HLA-A*24:02 Tgm, the Long peptide reaction entry is on record as “Yes”. For “PFSKVLTFL [CA24 22, hHSP105α HLA-A*24:02 short peptide]”, the CTL induction result in assay [1] is reported as “peptide-specific IFN-γ production had been found”.

As for LLQKIEVPL [CA02 24], in assay [2], the CTL induction result is “Yes”. Consider KLDVGNIVL [LAT1-A02-3], for which the CTL induction result in assay [2] is “Yes”.

Turning to DYIGPCKYI [CA24 54], in assay [1], the CTL induction entry was “Yes”. Consider ILMVFSIWL [CA02 95], for which the CTL induction entry in assay [2] is reported as “Yes”. In addition, the Long peptide reaction entry in the assay on HLA-A*02:01 Tgm is reported as “Yes”.

With LLTPVPSLV [LAT1-A02-2], the CTL induction result in assay [2] is reported as “Yes”. Still for that read-out and setting: the same measure for YLIGHGTKV [CA02 122]: “Yes”.

For the sequence FLIIQNAAV [A02-GPC3-12], in assay [2], the CTL induction result is given as “Yes”. In the assay with HLA-A*02:01 Tgm, the Long peptide reaction result is on record as “No”.

As for GQFTVIQLV [CA02 126], in assay [2], the CTL induction result was “Yes”. With “NYGIYKQDL [CA24 25, hHSP105α HLA-A*24:02 short peptide]”, the CTL induction entry in assay [1] was “peptide-specific IFN-γ production had been found”. For TVDGSTFSV [CA02 92], the CTL induction result in assay [2] is listed as “Yes”.

For FIFHKDLCQA [CA02 101], the CTL induction result in assay [2] is “Yes”. In addition, the Long peptide reaction entry in the assay with HLA-A*02:01 Tgm is given as “No”. In the same order, the values of FIFHKDLCQ [CA02 103] are “Yes” and “No”. With CYAELGTTI [LAT1-A24-2], in assay [1], the CTL induction result is “Yes”. Further, the Long peptide reaction result in the assay with HLA-A*24:02 Tgm was “Yes”.
